Measured values from the CheMixHub viscosity set.

Assay: xn = mol fraction of the nth substance listed

[Al+3].[Cl-].[Cl-].[Cl-] + CC(N)=O
viscosity [mPa·s], 101 kPa
Details | x1 = 0.5 | x1 = 0.52 | x1 = 0.57 | x1 = 0.6
313 K | 59.32 | 47.47 | 44.48 | 40.23
323 K | 41.01 | 32.24 | 30.87 | 28.7

C1COCO1 + C1CCOC1
298.15 K, 101 kPa
Details | viscosity [mPa·s]
x2 = 0.1025 | 0.5975
x2 = 0.2043 | 0.5993
x2 = 0.3057 | 0.5923
x2 = 0.4065 | 0.5804
x2 = 0.5067 | 0.5634
x2 = 0.6065 | 0.5438
x2 = 0.7056 | 0.5224
x2 = 0.8043 | 0.501
x2 = 0.9024 | 0.4802

Cc1cccc(C)n1 + C1CCCCC1
viscosity [mPa·s], 101 kPa
Details | x1 = 0.104 | x1 = 0.198 | x1 = 0.306 | x1 = 0.4003 | x1 = 0.503 | x1 = 0.6001 | x1 = 0.705 | x1 = 0.799 | x1 = 0.898
303 K | 0.727 | 0.6904 | 0.67 | 0.6636 | 0.6619 | 0.6624 | 0.6771 | 0.6933 | 0.7297
313 K | 0.6341 | 0.6026 | 0.5879 | 0.58 | 0.5789 | 0.5888 | 0.601 | 0.615 | 0.6426
323 K | 0.5572 | 0.5372 | 0.5288 | 0.5212 | 0.5181 | 0.5208 | 0.5361 | 0.5491 | 0.5758

C[N+](C)(C)CCO.O=C([O-])CC(=O)O + O
viscosity [mPa·s], 100 kPa
Details | x2 = 0.01 | x2 = 0.17 | x2 = 0.22 | x2 = 0.38 | x2 = 0.5 | x2 = 0.58 | x2 = 0.632 | x2 = 0.673 | x2 = 0.864
293.15 K | 12050 | 4381 | 3565 | 1377 | 622.1 | 312.8 | 206.3 | 145.4 | 14.3
298.15 K | 7430 | 2850 | 2316 | 941.2 | 438.7 | 227 | 152.2 | 108.9 | 11.9
303.15 K | 4675 | 1908 | 1563 | 651 | 317.1 | 168.5 | 114.7 | 83.2 | 9.9
308.15 K | 3076 | 1312 | 1084 | 467.9 | 234.5 | 127.7 | 88.2 | 64.8 | 8.4
313.15 K | 2089 | 924.5 | 770 | 343.9 | 177.1 | 98.6 | 69 | 51.3 | 7
318.15 K | 1453 | 666.7 | 559.7 | 257.6 | 136.3 | 77.5 | 54.9 | 41.2 | 6.2
323.15 K | 1034 | 491 | 415.2 | 199.7 | 106.8 | 61.8 | 44.4 | 33.6 | 5.4

CC(=O)c1ccccc1 + CCCCOC(C)=O
viscosity [mPa·s], 101 kPa
Details | x2 = 0.0904 | x2 = 0.1786 | x2 = 0.2746 | x2 = 0.37 | x2 = 0.4671 | x2 = 0.5675 | x2 = 0.672 | x2 = 0.7729 | x2 = 0.8848
298.15 K | 1.557 | 1.452 | 1.341 | 1.232 | 1.129 | 1.028 | 0.933 | 0.848 | 0.763
303.15 K | 1.405 | 1.312 | 1.212 | 1.115 | 1.024 | 0.934 | 0.849 | 0.772 | 0.696
308.15 K | 1.29 | 1.207 | 1.119 | 1.034 | 0.95 | 0.87 | 0.792 | 0.724 | 0.655
313.15 K | 1.188 | 1.112 | 1.032 | 0.954 | 0.877 | 0.804 | 0.734 | 0.671 | 0.608

CCCCCCCC/C=C\CCCCCCCC(=O)OCC(COC(=O)CCCCCCC/C=C\CCCCCCCC)OC(=O)CCCCCCC/C=C\CCCCCCCC + ClC(Cl)Cl
viscosity [mPa·s], 101.33 kPa
Details | x1 = 0.000728 | x1 = 0.000907 | x1 = 0.00244 | x1 = 0.004913 | x1 = 0.007824 | x1 = 0.01322 | x1 = 0.01672 | x1 = 0.03078
293.15 K | 0.5839 | 0.5875 | 0.6352 | 0.695 | 0.8133 | 1.032 | 1.109 | 1.733
298.15 K | 0.5545 | 0.5581 | 0.603 | 0.6576 | 0.7684 | 0.9701 | 1.042 | 1.585
303.15 K | 0.5275 | 0.5306 | 0.5725 | 0.6237 | 0.727 | 0.9137 | 0.9804 | 1.474

CCCCCCCCC + CC(C)CC(C)(C)C
298.15 K, 101 kPa
Details | viscosity [mPa·s]
x2 = 0.07718 | 0.6409
x2 = 0.2128 | 0.6118
x2 = 0.3294 | 0.5969
x2 = 0.4097 | 0.5806
x2 = 0.5252 | 0.5564
x2 = 0.6958 | 0.5351
x2 = 0.7143 | 0.5219
x2 = 0.8186 | 0.5071
x2 = 0.8823 | 0.4985
x2 = 0.9211 | 0.4877
x2 = 0.9661 | 0.4829

ClC(Cl)C(Cl)(Cl)Cl + CC(=O)c1ccccc1
298.15 K, 101 kPa
Details | viscosity [mPa·s]
x2 = 0.1163 | 2.34
x2 = 0.3295 | 2.36
x2 = 0.5338 | 2.26
x2 = 0.7313 | 2.03
x2 = 0.8974 | 1.8

NC(=O)c1ccccc1O + O
viscosity [mPa·s], 100 kPa
Details | x1 = 7.39e-05 | x1 = 0.000108 | x1 = 0.000143 | x1 = 0.00018 | x1 = 0.0002156 | x1 = 0.0002516
293.15 K | 1.008 | 1.011 | 1.013 | 1.015 | 1.016 | 1.017
298.15 K | 0.896 | 0.899 | 0.901 | 0.902 | 0.903 | 0.904
303.15 K | 0.803 | 0.805 | 0.807 | 0.808 | 0.81 | 0.811
308.15 K | 0.725 | 0.727 | 0.728 | 0.73 | 0.731 | 0.732
313.15 K | 0.659 | 0.661 | 0.662 | 0.663 | 0.664 | 0.665

CCC(O)CC + CCCCCCC
101 kPa
Details | viscosity [mPa·s]
293.4 K, x1 = 0.201 | 0.531
294 K, x1 = 0.026 | 0.466
294.1 K, x1 = 0.101 | 0.489
295.1 K, x1 = 0.5 | 0.734

CCCOCC(C)O (stereo not given) + CCNCC
viscosity [mPa·s], 100 kPa
Details | 298.15 K | 303.15 K | 308.15 K
x1 = 0.0509 | 0.3488 | 0.3318 | 0.3107
x1 = 0.1002 | 0.3949 | 0.3733 | 0.3489
x1 = 0.1505 | 0.4552 | 0.4261 | 0.4014
x1 = 0.2 | 0.519 | 0.4819 | 0.4542
x1 = 0.3003 | 0.6838 | 0.6321 | 0.5992
x1 = 0.4 | 0.8976 | 0.8055 | 0.7606
x1 = 0.5002 | 1.171 | 1.034 | 0.9506
x1 = 0.5999 | 1.436 | 1.264 | 1.15
x1 = 0.7 | 1.742 | 1.514 | 1.365
x1 = 0.7982 | 2.014 | 1.738 | 1.562
x1 = 0.9 | 2.265 | 1.94 | 1.739
x1 = 0.9496 | 2.361 | 2.021 | 1.814

C1COCO1 + O
viscosity [mPa·s], 101 kPa
Details | 298.15 K | 303.15 K | 308.15 K | 313.15 K | 318.15 K | 323.15 K
x1 = 0.01 | 0.754 | – | 0.6051 | – | 0.5251 | –
x1 = 0.026 | 0.813 | – | 0.6561 | – | 0.5671 | –
x1 = 0.03 | – | 0.8133 | – | 0.6555 | – | 0.5673
x1 = 0.041 | 0.8741 | – | 0.7144 | – | 0.6071 | –
x1 = 0.06 | – | 0.8766 | – | 0.7152 | – | 0.6053
x1 = 0.09 | – | 0.9304 | – | 0.7618 | – | 0.6297

ClC(Cl)C(Cl)(Cl)Cl + CC(C)=O
298.15 K, 101 kPa
Details | viscosity [mPa·s]
x2 = 0.1476 | 1.93
x2 = 0.3178 | 1.52
x2 = 0.5103 | 1.12
x2 = 0.7037 | 0.695
x2 = 0.9068 | 0.417

CN(C)P(=O)(N(C)C)N(C)C + CCCO
303.15 K, 101.3 kPa
Details | viscosity [mPa·s]
x1 = 0.0989 | 1.896
x1 = 0.1996 | 1.991
x1 = 0.3022 | 2.102
x1 = 0.4027 | 2.217
x1 = 0.4525 | 2.272
x1 = 0.598 | 2.444
x1 = 0.6994 | 2.569
x1 = 0.7809 | 2.666
x1 = 0.8672 | 2.766

CC(=O)c1ccccc1 + CCOC(=O)OCC
viscosity [mPa·s], 101 kPa
Details | x2 = 0.0972 | x2 = 0.1515 | x2 = 0.2512 | x2 = 0.3615 | x2 = 0.4921 | x2 = 0.5705 | x2 = 0.6654 | x2 = 0.7584 | x2 = 0.8932 | x2 = 0.9425
303.15 K | 1.413 | 1.358 | – | 1.155 | – | 0.977 | 0.906 | 0.843 | 0.76 | 0.732
308.15 K | 1.286 | 1.237 | 1.15 | 1.059 | 0.958 | 0.902 | 0.839 | 0.783 | 0.708 | 0.683
313.15 K | 1.205 | 1.159 | 1.079 | 0.995 | 0.901 | 0.85 | 0.791 | 0.738 | 0.669 | 0.646

CC(=O)c1ccccc1 + CCCCCO
298.15 K, 101 kPa
Details | viscosity [mPa·s]
x1 = 0.0754 | 3.104
x1 = 0.155 | 3.016
x1 = 0.2392 | 2.918
x1 = 0.3285 | 2.801
x1 = 0.4232 | 2.657
x1 = 0.524 | 2.498
x1 = 0.6313 | 2.31
x1 = 0.7459 | 2.102
x1 = 0.8685 | 1.898

O=S(Cl)Cl + [Cl-].[Cl-].[Cl-].[Cl-].[Sn+4]
298.15 K, 101 kPa
Details | viscosity [mPa·s]
x1 = 0.402 | 0.7259
x1 = 0.517 | 0.7057
x1 = 0.803 | 0.6524
